Measurements reported in PubChem BioAssay AID330 (DTP/NCI, 2004).
“And” between values parts separate entries of the source, which are not always exact repeats. Equal values may be shown once. Toxic doses and inconclusive results are not listed. How the source made its calls: active means survival T/C of 150% or more; inactive means T/C below 125% in these data.

Test system: P388 leukemia ip, CD2F1 mice, survival T/C
Test: NCI In Vivo Anticancer Drug Screen. Data for tumor model P388 Leukemia (intraperitoneal) in CD2F1 (CDF1) mice
Details: endpoint: median survival time, higher = longer survival
In short: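 Mice carrying the transplanted tumor received test compound or vehicle. Survival was recorded in each group, and the value is the treated-group measurement divided by that of the vehicle-treated control group.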

[1] = dose: 50.0 mg/kg/injection, schedule: Q01DX009 (ip), vehicle: Klucel (hydroxypropylcellulose) (HPC)
[2] = dose: 100.0 mg/kg/injection, schedule: Q01DX009 (ip), vehicle: Klucel (hydroxypropylcellulose) (HPC)
[3] = dose: 50.0 mg/kg/injection, schedule: Q01DX009 (ip), vehicle: saline with Tween-80
[4] = dose: 100.0 mg/kg/injection, schedule: Q01DX009 (ip), vehicle: saline with Tween-80
[5] = dose: 200.0 mg/kg/injection, schedule: Q01DX009 (ip), vehicle: saline with Tween-80
[6] = dose: 50.0 mg/kg/injection, schedule: Q01DX005 (ip), vehicle: saline with Tween-80
[7] = dose: 100.0 mg/kg/injection, schedule: Q01DX005 (ip), vehicle: saline with Tween-80
[8] = dose: 50.0 mg/kg/injection, schedule: Q01DX009 (ip), vehicle: saline
[9] = dose: 100.0 mg/kg/injection, schedule: Q01DX009 (ip), vehicle: saline
[10] = dose: 60.0 mg/kg/injection, schedule: Q01DX005 (ip), vehicle: saline with Tween-80
[11] = dose: 120.0 mg/kg/injection, schedule: Q01DX005 (ip), vehicle: saline with Tween-80
[12] = dose: 240.0 mg/kg/injection, schedule: Q01DX005 (ip), vehicle: saline with Tween-80
[13] = dose: 12.5 mg/kg/injection, schedule: Q01DX009 (ip), vehicle: Klucel (hydroxypropylcellulose) (HPC)
[14] = dose: 25.0 mg/kg/injection, schedule: Q01DX009 (ip), vehicle: Klucel (hydroxypropylcellulose) (HPC)

Measured: T/C

CCOC(=O)CSc1nnc(-c2ccc3c(c2)OCO3)o1
inactive: dose: 62.5 mg/kg/injection, schedule: Q01DX001 (ip), vehicle: Klucel (hydroxypropylcellulose) (HPC) 102 % of control | dose: 125.0 mg/kg/injection, schedule: Q01DX001 (ip), vehicle: Klucel (hydroxypropylcellulose) (HPC) 105 % of control | dose: 250.0 mg/kg/injection, schedule: Q01DX001 (ip), vehicle: Klucel (hydroxypropylcellulose) (HPC) 108 % of control

Nc1cccnc1
inactive: dose: 5.0 mg/kg/injection, schedule: Q04DX003 (ip), vehicle: saline 100 % of control | dose: 10.0 mg/kg/injection, schedule: Q04DX003 (ip), vehicle: saline 100 % of control | dose: 20.0 mg/kg/injection, schedule: Q04DX003 (ip), vehicle: saline 100 % of control

Cc1cc(N=Cc2cccs2)ccc1Br
inactive: [1] 101 % of control and 98 % of control | [2] 100 % of control and 101 % of control and 102 % of control | dose: 200.0 mg/kg/injection, schedule: Q01DX009 (ip), vehicle: Klucel (hydroxypropylcellulose) (HPC) 102 % of control and 95 % of control | dose: 400.0 mg/kg/injection, schedule: Q01DX009 (ip), vehicle: Klucel (hydroxypropylcellulose) (HPC) 105 % of control

CCOC12NC(=O)N(C)C1(OCC)C(=O)N(C)C(=O)N2C (configuration not stated)
inactive: [3] 91 % of control | [4] 92 % of control | [5] 88 % of control

O=S1(=O)C=C(Cl)C1
inactive: [6] 110 % of control | [7] 96 % of control

Nc1nc(N)c(Nc2ccc(Cl)cc2)c(Cl)n1
inactive: dose: 25.0 mg/kg/injection, schedule: Q01DX001 (ip), vehicle: saline with Tween-80 102 % of control | dose: 50.0 mg/kg/injection, schedule: Q01DX001 (ip), vehicle: saline with Tween-80 101 % of control | dose: 100.0 mg/kg/injection, schedule: Q01DX001 (ip), vehicle: saline with Tween-80 95 % of control

CC(C)(C#CC(C)(C)OC(=O)Nc1ccccc1)OC(=O)Nc1ccccc1
inactive: dose: 100.0 mg/kg/injection, schedule: Q01DX009 (ip), vehicle: suspension in saline 95 % of control | dose: 200.0 mg/kg/injection, schedule: Q01DX009 (ip), vehicle: suspension in saline 97 % of control | dose: 400.0 mg/kg/injection, schedule: Q01DX009 (ip), vehicle: suspension in saline 107 % of control

CCOC(=O)c1cc(Cl)cc2c(=O)c3c(O)c4[nH]c5c(C(=O)OCC)cc(Cl)cc5c(=O)c4c(O)c3[nH]c12
inactive: [1] 97 % of control | [2] 106 % of control

CC(C)(O)c1ccc[n+]([O-])c1
inactive: [8] 98 % of control | [9] 107 % of control | dose: 200.0 mg/kg/injection, schedule: Q01DX009 (ip), vehicle: saline 100 % of control

CCOC(=O)C(=CNc1cc(C)c2[nH]c3ccc(Br)cc3c2c1C)C(=O)OCC
inactive: [10] 93 % of control | [11] 93 % of control | [12] 86 % of control and 93 % of control

CC#CC#C/C=C1/C=CC(=O)O1
inactive: [13] 105 % of control | [14] 104 % of control | [1] 107 % of control | [2] 107 % of control

O=C1CCCCC(=O)Nc2ccc3nc4ccccc4c(c3c2)SCCCCCCCCSc2c3ccccc3nc3ccc(cc23)N1
inactive: [10] 101 % of control | [11] 110 % of control | [12] 91 % of control

CCOc1ccc(/C=C/c2ccc3ccccc3[n+]2C)cc1OCC
inactive: dose: 0.78 mg/kg/injection, schedule: Q01DX009 (ip), vehicle: saline with Tween-80 102 % of control | dose: 1.56 mg/kg/injection, schedule: Q01DX009 (ip), vehicle: saline with Tween-80 111 % of control

CC1(O)c2ccccc2C(C)(O)c2c1ccc1ccccc21 (configuration not stated)
inactive: [6] 95 % of control | [7] 87 % of control

COC(=O)C1=CO[C@@H](OC2OC(CO)C(O)C(O)C2O)[C@H]2[C@@H]1C=C[C@@]2(O)CO (some centres not stated)
inactive: dose: 6.25 mg/kg/injection, schedule: Q01DX009 (ip), vehicle: Klucel (hydroxypropylcellulose) (HPC) 100 % of control | [13] 88 % of control | [14] 100 % of control | [1] 99 % of control | [2] 107 % of control

O=c1c([N+](=O)[O-])c[nH]c2ccccc12
inactive: dose: 25.0 mg/kg/injection, schedule: Q01DX009 (ip), vehicle: distilled water + Tween-80 92 % of control | dose: 50.0 mg/kg/injection, schedule: Q01DX009 (ip), vehicle: distilled water + Tween-80 87 % of control | dose: 100.0 mg/kg/injection, schedule: Q01DX009 (ip), vehicle: distilled water + Tween-80 108 % of control | dose: 200.0 mg/kg/injection, schedule: Q01DX009 (ip), vehicle: distilled water + Tween-80 93 % of control

O=C(N=[N+]([O-])c1ccccc1)c1ccccc1
inactive: dose: 3.12 mg/kg/injection, schedule: Q01DX001 (ip), vehicle: saline with Tween-80 107 % of control | dose: 6.25 mg/kg/injection, schedule: Q01DX001 (ip), vehicle: saline with Tween-80 110 % of control | dose: 6.25 mg/kg/injection, schedule: Q04DX003 (ip), vehicle: saline with Tween-80 109 % of control and 118 % of control | dose: 12.5 mg/kg/injection, schedule: Q01DX001 (ip), vehicle: saline with Tween-80 99 % of control | dose: 12.5 mg/kg/injection, schedule: Q04DX003 (ip), vehicle: saline with Tween-80 114 % of control and 117 % of control | dose: 25.0 mg/kg/injection, schedule: Q04DX003 (ip), vehicle: saline with Tween-80 89 % of control and 95 % of control

C(=C\c1ccccc1)/C[P+](c1ccccc1)(c1ccccc1)c1ccccc1
inactive: dose: 0.62 mg/kg/injection, schedule: Q01DX009 (ip), vehicle: saline 90 % of control | dose: 0.63 mg/kg/injection, schedule: Q01DX009 (ip), vehicle: saline with Tween-80 100 % of control | dose: 1.25 mg/kg/injection, schedule: Q01DX009 (ip), vehicle: saline with Tween-80 122 % of control | dose: 1.25 mg/kg/injection, schedule: Q01DX009 (ip), vehicle: saline 93 % of control | dose: 2.5 mg/kg/injection, schedule: Q01DX009 (ip), vehicle: saline with Tween-80 109 % of control | dose: 2.5 mg/kg/injection, schedule: Q01DX009 (ip), vehicle: saline 90 % of control | dose: 5.0 mg/kg/injection, schedule: Q01DX009 (ip), vehicle: saline 98 % of control

N[C@H](C(=O)O)[C@@H]1CC(S(=O)(=O)c2ccccc2)=NO1
inactive: dose: 12.5 mg/kg/injection, schedule: Q01DX005 (ip), vehicle: distilled water + Tween-80 102 % of control | dose: 25.0 mg/kg/injection, schedule: Q01DX005 (ip), vehicle: distilled water + Tween-80 102 % of control

CCN(CC)CCNC(=O)c1nn(-c2ccccc2)c2c1CCCc1ccccc1-2
inactive: dose: 25.0 mg/kg/injection, schedule: Q04DX003 (ip), vehicle: Klucel (hydroxypropylcellulose) (HPC) 101 % of control | dose: 50.0 mg/kg/injection, schedule: Q04DX003 (ip), vehicle: Klucel (hydroxypropylcellulose) (HPC) 101 % of control | dose: 100.0 mg/kg/injection, schedule: Q04DX003 (ip), vehicle: Klucel (hydroxypropylcellulose) (HPC) 99 % of control and 92 % of control

COC(=O)c1oc2c(c1C(=O)OC)c1ccccc1n2C(C)=O
inactive: dose: 100.0 mg/kg/injection, schedule: Q04DX002 (ip), vehicle: saline with Tween-80 102 % of control | dose: 200.0 mg/kg/injection, schedule: Q04DX002 (ip), vehicle: saline with Tween-80 105 % of control | dose: 400.0 mg/kg/injection, schedule: Q04DX002 (ip), vehicle: saline with Tween-80 100 % of control

CCN(CC)c1nc(N)nc(N)n1
inactive: dose: 6.25 mg/kg/injection, schedule: Q01DX009 (ip), vehicle: saline 106 % of control | dose: 12.5 mg/kg/injection, schedule: Q01DX009 (ip), vehicle: saline with Tween-80 107 % of control | dose: 12.5 mg/kg/injection, schedule: Q01DX009 (ip), vehicle: saline 103 % of control | dose: 25.0 mg/kg/injection, schedule: Q01DX009 (ip), vehicle: saline with Tween-80 103 % of control | dose: 25.0 mg/kg/injection, schedule: Q01DX009 (ip), vehicle: saline 107 % of control and 94 % of control | [3] 107 % of control and 94 % of control | [8] 100 % of control | [4] 101 % of control | [9] 97 % of control | [5] 88 % of control

CCn1c2ccc(N)cc2c2c3ncc4cccn4c3ccc21
inactive: [10] 88 % of control | [11] 87 % of control
